Where “and” joins values, the source holds several entries; their conditions need not be identical. Identical values can stand only once.
How the values were obtained:
[1] = biological target: T1, SGLT1 (Homo sapiens, UniProt P13866); experiment: SGLT1 inhibition with varied substrate AMG concentration (Dixon / L-B plot); assay type: cell-based; details: for Inhibition mechanism, SGLT1: CHO-SGLT1, varied AMG concentration; for Ki: from slope of L-B plot, CHO-SGLT1
T1 construct: expressed in transfected cells
T1 sequence (P13866 1-664): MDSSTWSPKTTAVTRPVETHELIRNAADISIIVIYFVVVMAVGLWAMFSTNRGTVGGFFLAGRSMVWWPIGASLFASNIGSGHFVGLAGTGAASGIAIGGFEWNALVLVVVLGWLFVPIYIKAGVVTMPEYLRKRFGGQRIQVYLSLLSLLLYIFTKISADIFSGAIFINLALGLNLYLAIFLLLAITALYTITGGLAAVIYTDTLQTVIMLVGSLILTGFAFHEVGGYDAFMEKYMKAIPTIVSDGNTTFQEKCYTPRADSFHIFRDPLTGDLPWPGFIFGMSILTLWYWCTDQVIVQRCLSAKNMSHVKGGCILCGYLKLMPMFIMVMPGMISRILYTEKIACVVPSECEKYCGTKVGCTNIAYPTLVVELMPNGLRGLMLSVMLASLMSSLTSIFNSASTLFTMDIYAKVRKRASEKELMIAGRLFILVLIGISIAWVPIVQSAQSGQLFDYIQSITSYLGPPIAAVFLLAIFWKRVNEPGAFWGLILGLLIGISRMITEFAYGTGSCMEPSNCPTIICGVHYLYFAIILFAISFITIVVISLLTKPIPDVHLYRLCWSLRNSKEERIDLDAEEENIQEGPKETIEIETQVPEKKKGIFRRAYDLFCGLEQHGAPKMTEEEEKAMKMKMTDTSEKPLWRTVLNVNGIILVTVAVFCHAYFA
Experimental: From these, the inhibition mechanism was confirmed, and the inhibition constant was calculated.

[2] = biological target: T1, SGLT1; experiment: Whole-cell patch clamp glucose current, binding and dissociation, CHO-SGLT1; assay type: cell-based; details: for Dissociation degree T1/2, off (s), SGLT1: washout
Experimental: When SGLT1- and SGLT2-overexpressing cell lines (CHO-SGLT1, CHO-SGLT2 stable cells) were cultured to reach 60% confluency, the cells were treated with 0.05% trypsin to detach the cells from the bottom of the plate, suspended in 200 μL of culture medium, and used at room temperature.
Glucose reabsorption is induced by the Na^+ electrochemical potential gradient in the kidneys via SGLT2, and glucose diffuses across the cell membrane into the blood via glucose transporter 2 (GLUT-2), which enables facilitated glucose transport. While one Na^+ ion is absorbed per glucose molecule through SGLT2, two Nations are absorbed per glucose molecule through SGLT1. Therefore, by varying the composition of the buffer, only the glucose current was recorded, excluding the Na^+ current.
The experiment was conducted as described below.
1) Using a Narishige puller, a glass micropipette was made in two stages of 62.7° C. and 57° C., filled with an internal solution (145 mM CsCl, 5 mM NaCl, 10 mM HEPES, 11 mM ethylene glycol-bis(2-aminoethylether)-N,N,N′,N′-tetraacetic acid (EGTA), pH 7.2), and then inserted into the Ag/AgCl2 electrode of the patch clamp head-stage.
2) SGLT1 or SGLT2 cells were seeded on a chamber which was coated with poly-L-lysine in advance, and then an external solution (150 mM NaCl, 10 mM HEPES, 1 mM CaCl2), 1 mM MgCl2, pH 7.4) was flowed to ensure that the cells were sufficiently submerged. A temperature control device was used to maintain the temperature of the chamber at 36.5±0.5° C.
3) Using a micromanipulator, the glass micropipette was attached to the cell membrane to create a giga-ohm seal, which was then ruptured to detach the cell membrane (whole-cell mode, 3 to 5 MΩ).
4) The cells were fixed at −60 mV (holding potential), and the current [I^total current (Na^+/Glucose current (pA))] was measured in a gap-free data acquisition mode.
5) The external solution was continuously flowed into the chamber containing the cells, and the current (I^total) was recorded for about 30 seconds to 1 minute (stabilization), and then the external solution with added glucose (Na^+/Glucose external) (150 mM NaCl, 10 mM HEPES, 1 mM CaCl2), 1 mM MgCl2, 100 mM glucose, pH 7.4) was flowed to record the glucose current (I^glucose). Then, the cells were exposed to the external solution with added glucose containing one concentration of the compound for two minutes, and the glucose current suppressed by the compound was recorded.
7) After confirming the recovery of the current, the solution was replaced with a sodium-free external solution (Na^+-free external) (150 mM Choline-Cl, 1 mM CaCl2), 1 mM MgCl2, pH 7.4) and the Na^+ current was recorded. After the current was stabilized, the solution was replaced with the external solution to record the current in the resting state when the cells were not stimulated, thereby securing the reliability of the experimental system.
For statistical analysis of data, pCLAMP10.4 (Molecular Devices, LLC, San Jose, CA, USA) or Origin6.0 (OriginLab, Northampton, MA, USA) was used.
The test results were expressed as the mean±SD of the mean. Statistical significance was verified using the nonparametric Kruskal-Wallis test using Statistical Package for the Social Sciences (SPSS) for Windows (version 26.0, IBM Corp., Armonk, NY, USA). The significance level was set at p<0.05.

[3] = tested on: normal rats; experiment: Oral glucose tolerance test (OGTT) after intravenous administration; assay type: in vivo, rat; details: 1 mg/kg intravenous; for Glucose tolerance inhibition rate improved compared to the vehicle (blood glucose AUC): AUC for 120 minutes; for Glucose tolerance in OGTT: glucose 2 g/kg
Experimental: Enavogliflozin, M1, or M2 was intravenously administered once to normal rats, and antidiabetic efficacy was evaluated.
To perform the oral glucose tolerance test (OGTT) and examine urinary glucose excretion (UGE), enavogliflozin, M1, or M2 was administered intravenously to male 8-week-old normal rats at a dose of 1 mg/kg, and then a glucose solution (2 g/kg) was administered to load blood sugar. The blood sugar level was measured before glucose solution administration and at 5, 10, 15, 20, 30, 40, 60, 90, and 120 minutes after the administration to evaluate oral glucose tolerance. In addition, the UGE was evaluated by measuring the amount of glucose excreted in the urine 6, 24, 48, and 72 hours after the administration of the glucose solution.

Row | Inhibition mechanism, SGLT1 [1] | Ki [1] [nM] | Binding affinity T1/2, on (s), SGLT1 ([2]; treatment concentration 5 μM) [s] | Dissociation degree T1/2, off (s), SGLT1 ([2]; treatment concentration 5 μM) | Dissociation degree T1/2, off (s), SGLT1 ([2]; treatment concentration 5 μM, listed as enavogliflozin) [s] | Dissociation from SGLT1, times slower than dapagliflozin ([2]; ratio of T1/2,off) [times] | Dissociation from SGLT1, times slower than enavogliflozin ([2]; ratio of T1/2,off) [times] | Binding affinity T1/2, on (s), SGLT1 ([2]; treatment concentration 20 μM) [s] | Dissociation degree T1/2, off (s), SGLT1 ([2]; treatment concentration 20 μM) | SMILES | Glucose tolerance inhibition rate improved compared to the vehicle (blood glucose AUC) [3] [%] | Glucose tolerance in OGTT [3] | Glucose tolerance in OGTT ([3]; 1 mg/kg) | Glucose tolerance in OGTT ([3]; listed as Metabolite M1, 1 mg/kg)
1 | Competitive inhibition | 495 | 11.5 ± 4.2 | 34.9 ± 9.6 s | 34.9 | – | – | – | – | OC[C@H]1O[C@@H](c2cc(Cc3ccc(C4CC4)cc3)c(Cl)c3c2CCO3)[C@H](O)[C@@H](O)[C@@H]1O [Enavogliflozin, (2S,3R,4R,5S,6R)-2-(7-chloro-6 (4-cyclopropylbenzyl)-2,3-dihydrobenzofuran-4-yl)-6-(hydroxymethyl)tetrahydro-2H-pyran-3,4,5-triol] | 27 | improved glucose tolerance | – | –
2 | Competitive inhibition | 84.8 | 18.8 ± 4.1 | 59.8 s and 59.8 ± 11.5*^, + s | – | 1.96 | 1.7 | – | – | OC[C@H]1O[C@@H](c2cc(Cc3ccc(C4CC4)cc3)c(Cl)c3c2CC(O)O3)[C@H](O)[C@@H](O)[C@@H]1O (stereo partly drawn) [M1, (2S,3R,4R,5S,6R)-2-(7-chloro-6-(4-cyclopropylbenzyl)-2-hydroxy-2,3-dihydrobenzofuran-4-yl)-6-(hydroxymethyl)tetrahydro-2H-pyran-3,4,5-triol] | 49 | – | improved glucose tolerance | superior glucose tolerance to enavogliflozin
3 | Competitive inhibition | 1870 | – | – | – | – | – | 15.7 ± 6.5 | 23.5 s and 23.5 ± 10.4 s | OC[C@H]1O[C@@H](c2cc(Cc3ccc(C4(O)CC4)cc3)c(Cl)c3c2CCO3)[C@H](O)[C@@H](O)[C@@H]1O [M2, (2S,3R,4R,5S,6R)-2-(7-chloro-6-(4-(1-hydroxycyclopropyl)benzyl)-2,3-dihydrobenzofuran-4-yl)-6-(hydroxymethyl)tetrahydro-2H-pyran-3,4,5-triol] | 23 | – | improved glucose tolerance | –
